# Experiments:
# [1] = test system: regulatory T cell and Th17 cell; assay: Regulatory T cell and Th17 cell activity in lupus animal model; type: in vivo; conditions: vs control group
# pathogenic B cell = assay: IgG production by LPS-stimulated B cell; type: cell-based, mouse; conditions: metformin 1 μM, 2 μM, and 5 μM; LPS 1 μg/ml
# Protocol: Then, the level of IgG produced by B cell of the mouse was measured by the same manner as described in Example 1.
# lupus mouse model = assay: Spleen and liver observation (size, GC follicles, inflammatory cell infiltration) in lupus mouse model; type: in vivo
# Protocol: The size of those spleen and liver was measured by the naked eye, and the size and the number of GC follicle (Germinal Center follicle) were also observed.
# The infiltration of inflammatory cells around the blood vessels of liver tissue was also observed.
# pathogenic B cells = assay: FACS and staining of spleen cells for pathogenic B cells, GC and THF in lupus mouse model; type: in vivo
# From the text: Then, spleen cells were separated therefrom and B cell was observed. Particularly, the representative pathogenic B cells, B220−CD138+ long lived plasma B cell and GL7+B220+ germinal center B cell, were observed. For the observation, the spleen cells separated from each group were stained with CD138 and B220 and the […] were stained with GL7 and B220, followed by FACS to examine the expression of each cell.
# autophagy = assay: Autophagy molecules and IL-17/Foxp3 in T cells under Th17 differentiation, Western blotting and confocal staining; type: cell-based; conditions: 1 mM metformin, 24 hours
# Protocol: (§1) Particularly, T cells were separated from the spleen cells of the lupus animal model. […] To analyze signal molecules in the cultured cells, protein was extracted from each condition of the cells. Western blotting was performed with the extracted protein. The protein separated by size was conjugated with each antibody against ATG5, p62, and 3-actin. The activity of each molecule was evaluated. Some of the cultured cells were conjugated with DAPI, IL-17, and Foxp3 fluorescent antibodies, whose expressions were examined under fluorescent microscope after confocal staining.
# B cell = B cell differentiation stages after LPS and metformin for 3 days, FACS; type: cell-based
# Protocol: FACS was performed to observe any changes of the cell in each stage of B cell differentiation.
# mTOR/STAT3 = mTOR/STAT3 signalling in T cells from lupus animal model spleen, Western blotting and confocal staining; type: cell-based
# Protocol: as §1, with “p-AMPK, AMPK, p-mTOR, mTOR, p-STAT3 705, p-STAST3 727, STAT3, p-STAT5, STAT5,” for “ATG5, p62,”, “β-actin.” for “3-actin.”, “p-AMPK, AMPK, p-mTOR, p-STAT3 705, p-STAT3 727,” for “DAPI, IL-17,”, “p-p53” for “Foxp3”, “staining” for “staining.”
# In addition, nucleus and cytoplasm were separated in order to examine the expression of NrF2 in the nucleus and cytoplasm. Electrophoresis was performed and then Nrf2, tubulin, and β-actin were analyzed by Western blotting.
# Th17 cell [2] = assay: Th17 differentiation of CD4+ T cells from lupus mouse spleen: FACS, real-time PCR, IL-17 ELISA; type: cell-based; conditions: 3 days
# Protocol: Particularly, T cells were separated from the spleen of the lupus mouse model by using CD4+ microbeads. […] Upon completion of the culture, some of the cultured cells were stained with CD4-PerCP and ILo-17 PE, followed by FACS. RNA was separate from the remaining cells, from which Th17 cell related gene was amplified by real-time PCR. The expression of IL-17 in the culture solution was analyzed by ELISA (antigen-antibody examination).
# Th17 cell [3] = assay: Th17 cytokine ELISA and electron microscopy with autophagy activity inhibitor in T cells of lupus mouse model; type: cell-based
# Protocol: Thus, the present inventors investigated whether or not the activation of autophagy could be directly involved in the suppression of Th17 cell by using an autophagy activity inhibitor. Particularly, T cells were separated from the spleen cells of the lupus mouse model. […] Upon completion of the culture, IL-17, IL-21, and TNF-α cytokines in the culture solution were analyzed by ELISA. Some of those cultured cells were observed under electron microscope to directly observe the activated autophagy therein.
# TFH cell = TFH cell expression in spleen tissue, confocal staining, lupus animal model; type: in vivo, mouse; conditions: intraperitoneal injection 3 times a week; 5 weeks after the administration
# Protocol: Particularly, CD4-PerCP, B220-APC, GL-7-FITC, and IOCS-PE fluorescence staining was performed. Then, TFH cells expressing GL-7+ICOS+ in CD4 T cells were examined under fluorescent microscope.
# undifferentiated B cell = assay: Differentiation of undifferentiated B cell into regulatory B cell (Breg); type: cell-based; conditions: undifferentiated B cell treated with metformin
# From the text: As a result, the numbers of both IL-10+ B cell and Foxp3+ B cell were all increased.
# lupus animal model = assay: Serum lupus-specific dsDNA and IgG by ELISA in the lupus animal model; type: in vivo, mouse; conditions: oral 100 mg/kg every day
# Protocol: At this time, the lupus animal model not treated with metformin was used as the control. […] The analysis of the treatment effect was performed as follows. […] Serum was separated from the blood extracted above. The levels of lupus-specific dsDNA (Sigma, cat no. D8515) and IgG (Sigma) in the separated serum were measured by ELISA. Particularly, 96-well plate was coated with dsDNA or anti-mouse IgG, to which the serum separated from the mouse blood was loaded, followed by reaction. Then, […] was added thereto, followed by reaction. Color development was induced by TMB system and the […] was measured.
# [4] = oral 100 mg/kg every day for 3 weeks, spleen cells, FACS, vs control
# [5] = staining of spleen cells, vs lupus mouse model not treated
# [6] = 1 mM metformin with IL-6 or IL-2 (10 ng/ml), 24 hours
# [7] = real-time PCR, Th17 differentiation
# [8] = vs lupus group not treated with metformin
smiles,measurement,setting,value
CN(C)C(=N)NC(=N)N [metformin],activity of Th17,[1],decreased
same,activity of regulatory T cell,[1],increased
same,IgG production in B cell,pathogenic B cell,reduced by metformin dose-dependently
same,size and number of GC follicle,"lupus mouse model; spleen, vs group not treated with metformin",significantly decreased
same,size of spleen,lupus mouse model; vs group not treated with metformin,significantly reduced
same,infiltration of inflammatory cells around the blood vessels of liver tissue,lupus mouse model; vs lupus mouse group not treated with metformin,hardly observe
same,B220-CD138+ long lived plasma B cell,pathogenic B cells; [4],significantly reduced
same,GL7+B220+ germinal center B cell,pathogenic B cells; [4],significantly reduced
same,number of follicular B helper T cells (THF),pathogenic B cells; [5],also reduced
same,size of GC,pathogenic B cells; [5],significantly reduced
same,ATG5 (autophagy activating molecule),autophagy; Western blotting,activate
same,p62 (autophagy activating molecule),autophagy; Western blotting,activate
same,expression of Foxp3,autophagy; confocal staining,increase
same,expression of IL-17,autophagy; confocal staining,suppress
same,germinal center B cell,B cell,suppressed by metformin dose-dependently
same,pre-long lived plasma cell B220+CD138 low cell,B cell,suppressed by metformin dose-dependently
same,pro/preB cell in the stage of early B cell differentiation,B cell,suppressed by metformin dose-dependently
same,AMPK activity,mTOR/STAT3; [6],activated
same,mTOR/STAT3 activity,mTOR/STAT3; [6],suppression
same,expression of NrF2,"mTOR/STAT3; 1 mM metformin, nucleus and cytoplasm, Western blotting",increased
same,expression of IL-17,"Th17 cell [2]; Th17 differentiation condition, metformin 0.1, 1, and 5 mM, FACS and ELISA",regulated by metformin
same,expression of Foxp3 gene,Th17 cell [2]; [7],increased
same,expression of Th-17 related gene Ahr,Th17 cell [2]; [7],suppression
same,expression of Th-17 related gene IL-17,Th17 cell [2]; [7],suppression
same,expression of Th-17 related gene IL-21,Th17 cell [2]; [7],suppression
same,expression of Th-17 related gene RUNX1,Th17 cell [2]; [7],suppression
same,expression of Th-17 related gene TNF-α,Th17 cell [2]; [7],suppression
same,suppressed IL-17 expression when the autophagy inhibitor was co-treated,"Th17 cell [3]; 1 mM metformin plus 10 μM bafilomycin or methyladenine, 72 hours, ELISA",increased
same,expression of IL-17,"Th17 cell [3]; 1 mM metformin, Th17 differentiation, 72 hours, ELISA",suppressed
same,intracellular activation of autophagy,Th17 cell [3]; electron microscope,directly confirmed
same,expression of TFH cell expressing ICOS in the spleen tissue,TFH cell,suppressed
same,number of Foxp3+ B cell,undifferentiated B cell,increased
same,number of IL-10+ B cell,undifferentiated B cell,increased
same,level of IgG in serum,lupus animal model; [8],significantly reduced
same,level of lupus-specific dsDNA in serum,lupus animal model; [8],significantly reduced
same,level of lupus-specific dsDNA in serum compared with normal mouse group,lupus animal model; vs normal (wild type) mouse group,rather lower than that of the normal mouse group

# — US20150238445A1 (CATHOLIC UNIVERSITY INDUSTRY ACADEMIC COOPERATION FOUNDATION, priority 2012, published 2015)
